From ChEMBL document CHEMBL2321831, “Design, synthesis, and biological evaluations of novel 7-[7-amino-7-methyl-5-azaspiro[2.4]heptan-5-yl]-8-methoxyquinolines with potent antibacterial activity against respiratory pathogens” (J Med Chem, 2013)
≈ marks a conversion by molar mass, not a printed value. Calls of active or inactive are those of the source. The rule behind the calls is not given here.

Tests used:
Chlamydia pneumoniae [1] = experiment: Ratio of MIC for levofloxacin to compound MIC for Chlamydophila pneumoniae AR39; format: functional
[2] = tested on: Mycoplasmoides pneumoniae; experiment: Ratio of MIC for levofloxacin to compound MIC for Mycoplasma pneumoniae ATCC 29085; format: functional
[3] = tested on: Mycoplasmoides pneumoniae; experiment: Ratio of MIC for levofloxacin to compound MIC for Mycoplasma pneumoniae 18-1; format: functional
Bacillus subtilis [4] = experiment: Ratio of MIC for levofloxacin to compound MIC for Bacillus subtilis IID 685; format: functional
Enterococcus faecalis [5] = experiment: Ratio of MIC for levofloxacin to compound MIC for Enterococcus faecalis ATCC 19433; format: functional
Streptococcus pyogenes [6] = experiment: Ratio of MIC for levofloxacin to compound MIC for Streptococcus pyogenes G-36; format: functional
Streptococcus pneumoniae [7] = experiment: Ratio of MIC for levofloxacin to compound MIC for penicillin-susceptible Streptococcus pneumoniae J24; format: functional
[8] = tested on: Staphylococcus epidermidis; experiment: Ratio of MIC for levofloxacin to compound MIC for Staphylococcus epidermidis 56500; format: functional
Staphylococcus aureus [9] = experiment: Ratio of MIC for levofloxacin to compound MIC for Staphylococcus aureus FDA 209-P; format: functional
Streptococcus pneumoniae [10] = experiment: Antibacterial activity against quinolone-sensitive Streptococcus pneumoniae infected in po dosed CBA/JNCrj mouse pneumonia model administered bid measured day after final administration of drug; format: functional, organism-based
Streptococcus pneumoniae [11] = experiment: Antibacterial activity against quinolone-resistant Streptococcus pneumoniae infected in sc dosed CBA/JNCrj mouse pneumonia model administered bid measured day after final administration of drug; format: functional, organism-based
Mus musculus [12] = experiment: Toxicity in SLC:ddY mouse assessed as induction of micronucleus formation at 150 mg/kg, iv after 24 to 48 hrs by fluorescence microscopic analysis; format: organism-based; parameters: dose 150 mg/kg, route intravenous; details: in vivo
Mus musculus [13] = experiment: Toxicity in SLC:ddY mouse assessed as induction of micronucleus formation at 100 mg/kg, iv after 24 to 48 hrs by fluorescence microscopic analysis; format: organism-based; parameters: dose 100 mg/kg, route intravenous; details: in vivo
Mus musculus [14] = experiment: Toxicity in SLC:ddY mouse assessed as induction of micronucleus formation at 50 mg/kg, iv after 24 to 48 hrs by fluorescence microscopic analysis; format: organism-based; parameters: dose 50 mg/kg, route intravenous; details: in vivo
Mus musculus [15] = experiment: Toxicity in SLC:ddY mouse assessed as mortality at 150 mg/kg, iv after 7 days; format: organism-based; parameters: dose 150 mg/kg, route intravenous; details: in vivo, 168 h
Mus musculus [16] = experiment: Toxicity in SLC:ddY mouse assessed as mortality at 100 mg/kg, iv after 7 days; format: organism-based; parameters: dose 100 mg/kg, route intravenous; details: in vivo, 168 h
Mus musculus [17] = experiment: Toxicity in SLC:ddY mouse assessed as mortality at 50 mg/kg, iv after 7 days; format: organism-based; parameters: dose 50 mg/kg, route intravenous; details: in vivo, 168 h
[18] = Primary phase half life in cynomolgus monkey serum at 5 mg/kg, iv; format: ADME, organism-based, Macaca fascicularis; parameters: dose 5 mg/kg, route intravenous; details: read-out: alphat1/2 (converted)
[19] = AUC (0 to 8 hrs) in cynomolgus monkey serum at 5 mg/kg, iv; format: ADME, organism-based, Macaca fascicularis, Plasma; parameters: time < 8 hr, dose 5 mg/kg, route intravenous
[20] = Drug uptake in cynomolgus monkey serum at 5 mg/kg, iv after 5 mins; format: ADME, organism-based, Macaca fascicularis; parameters: dose 5 mg/kg, route intravenous; details: read-out: Drug uptake
[21] = Drug recovery in cynomolgus monkey urine at 5 mg/kg, po after 24 hrs; format: ADME, organism-based, Macaca fascicularis; parameters: dose 5 mg/kg, route oral; details: read-out: Drug recovery
[22] = Bioavailability in cynomolgus monkey at 5 mg/kg, po; format: ADME, organism-based, Macaca fascicularis; details: in vivo
[23] = Half life in cynomolgus monkey serum at 5 mg/kg, po; format: ADME, organism-based, Macaca fascicularis; parameters: dose 5 mg/kg, route oral
[24] = Cmax in cynomolgus monkey serum at 5 mg/kg, po; format: ADME, organism-based, Macaca fascicularis; parameters: dose 5 mg/kg, route oral
[25] = AUC (0 to 24 hrs) in cynomolgus monkey serum at 5 mg/kg, po; format: ADME, organism-based, Macaca fascicularis, Plasma; parameters: time < 24 hr, dose 5 mg/kg, route oral
[26] = Drug recovery in Crj:CD rat urine at 5 mg/kg, po after 24 hrs; format: ADME, organism-based; parameters: dose 5 mg/kg, route oral; details: read-out: Drug recovery
[27] = Drug recovery in cynomolgus monkey urine at 5 mg/kg, iv after 24 hrs; format: ADME, organism-based, Macaca fascicularis; parameters: dose 5 mg/kg, route intravenous; details: read-out: Drug recovery
[28] = Ratio of AUC (0 to 8 hrs) in Crj:CD rat kidney to AUC (0 to 8 hrs) in Crj:CD rat serum at 5 mg/kg, po; format: ADME, organism-based; parameters: dose 5 mg/kg, route oral; details: read-out: Ratio AUC
[29] = Ratio of AUC (0 to 8 hrs) in Crj:CD rat liver to AUC (0 to 8 hrs) in Crj:CD rat serum at 5 mg/kg, po; format: ADME, organism-based; parameters: dose 5 mg/kg, route oral; details: read-out: Ratio AUC
[30] = AUC (0 to 8 hrs) in Crj:CD rat kidney at 5 mg/kg, po; format: ADME, organism-based; parameters: time < 8 hr, dose 5 mg/kg, route oral
[31] = AUC (0 to 8 hrs) in Crj:CD rat liver at 5 mg/kg, po; format: ADME, organism-based; parameters: time < 8 hr, dose 5 mg/kg, route oral
[32] = Ratio of AUC (0 to 8 hrs) in Crj:CD rat lung to AUC (0 to 8 hrs) in Crj:CD rat serum at 5 mg/kg, po; format: ADME, organism-based; parameters: dose 5 mg/kg, route oral; details: read-out: Ratio AUC
[33] = AUC (0 to 8 hrs) in Crj:CD rat lung at 5 mg/kg, po; format: ADME, organism-based; parameters: time < 8 hr, dose 5 mg/kg, route oral
[34] = Cmax in Crj:CD rat serum at 5 mg/kg, po; format: ADME, organism-based; parameters: dose 5 mg/kg, route oral
[35] = AUC (0 to 8 hrs) in Crj:CD rat serum at 5 mg/kg, po; format: ADME, organism-based; parameters: time < 8 hr, dose 5 mg/kg, route oral
[36] = Plasma protein binding in human at 5 ug/mL by ultrafiltration method; format: ADME, cell-free; details: read-out: PPB (converted)
[37] = Aqueous solubility of the compound; format: physicochemical
hERG (KCNH2) [38] = target: T1, hERG (KCNH2) (Homo sapiens, UniProt Q12809); experiment: Inhibition of human ERG expressed in CHOK1 cells at 100 uM; format: cell-based; details: CHO-K1 cells expressing hERG
hERG (KCNH2) [39] = target: T1, hERG (KCNH2); experiment: Inhibition of human ERG expressed in CHOK1 cells at 30 uM; format: cell-based; details: CHO-K1 cells expressing hERG
Cytochrome P450 3A4 = Cytochrome P450 3A4 (Homo sapiens, UniProt P08684); experiment: Inhibition of CYP3A4 in human liver microsomes assessed as 1'-hydroxylation of midazolam; format: ADME, Microsome
Streptococcus pneumoniae [40] = experiment: Antibacterial activity against levofloxacin-intermediate and levofloxacin-resistant Streptococcus pneumoniae after 18 hrs by microbroth dilution method; format: functional
Chlamydia pneumoniae [41] = experiment: Antibacterial activity against Chlamydophila pneumoniae CM-1 after 18 hrs by microbroth dilution method; format: functional; details: CM-1, 18 h
Chlamydia pneumoniae [42] = experiment: Antibacterial activity against Chlamydophila pneumoniae AR39 after 18 hrs by microbroth dilution method; format: functional; details: AR39, 18 h
[43] = tested on: Mycoplasmoides pneumoniae; experiment: Antibacterial activity against Mycoplasma pneumoniae ATCC 29085 after 18 hrs by microbroth dilution method; format: functional; details: ATCC 29085, 18 h
[44] = tested on: Mycoplasmoides pneumoniae; experiment: Antibacterial activity against Mycoplasma pneumoniae 18-1 after 18 hrs by microbroth dilution method; format: functional; details: 18-1, 18 h
Pseudomonas aeruginosa = experiment: Antibacterial activity against Pseudomonas aeruginosa PAO1 after 18 hrs by microbroth dilution method; format: functional; details: PAO1, 18 h
Moraxella catarrhalis = experiment: Antibacterial activity against Moraxella catarrhalis ATCC 25238 after 18 hrs by microbroth dilution method; format: functional; details: ATCC 25238, 18 h
Haemophilus influenzae = experiment: Antibacterial activity against Haemophilus influenzae ATCC 49247 after 18 hrs by microbroth dilution method; format: functional; details: ATCC 49247, 18 h
Escherichia coli = experiment: Antibacterial activity against Escherichia coli NIHJ after 18 hrs by microbroth dilution method; format: functional
Klebsiella pneumoniae = experiment: Antibacterial activity against Klebsiella pneumoniae TYPE1 after 18 hrs by microbroth dilution method; format: functional; details: TYPE1, 18 h
Bacillus subtilis [45] = experiment: Antibacterial activity against Bacillus subtilis IID 685 after 18 hrs by microbroth dilution method; format: functional; details: IID 685, 18 h
Streptococcus pyogenes [46] = experiment: Antibacterial activity against Streptococcus pyogenes G-36 after 18 hrs by microbroth dilution method; format: functional; details: G-36, 18 h
Enterococcus faecalis [47] = experiment: Antibacterial activity against Enterococcus faecalis ATCC 19433 after 18 hrs by microbroth dilution method; format: functional; details: ATCC 19433, 18 h
Streptococcus pneumoniae [48] = experiment: Antibacterial activity against quinolone, penicillin-resistant Streptococcus pneumoniae 104835 after 18 hrs by microbroth dilution method; format: functional; details: Streptococcus pneumoniae, 104835, 18 h
Streptococcus pneumoniae [49] = experiment: Antibacterial activity against penicillin-susceptible Streptococcus pneumoniae J24 after 18 hrs by microbroth dilution method; format: functional; details: J24, 18 h
[50] = tested on: Staphylococcus epidermidis; experiment: Antibacterial activity against Staphylococcus epidermidis 56500 after 18 hrs by microbroth dilution method; format: functional; details: Staphylococcus epidermidis, 56500, 18 h
Staphylococcus aureus [51] = experiment: Antibacterial activity against levofloxacin-resistant and methicillin-resistant Staphylococcus aureus 870307 after 18 hrs by microbroth dilution method; format: functional; details: Staphylococcus aureus, 870307, 18 h
Staphylococcus aureus [52] = experiment: Antibacterial activity against Staphylococcus aureus FDA 209-P after 18 hrs by microbroth dilution method; format: functional
Chlamydia pneumoniae [53] = experiment: Ratio of MIC for levofloxacin to compound MIC for Chlamydophila pneumoniae CM-1; format: functional
[54] = Chloroform-phosphate buffer apparent partition coefficient of the compound, P at pH 7.4

T1 sequence (Q12809 whole entry): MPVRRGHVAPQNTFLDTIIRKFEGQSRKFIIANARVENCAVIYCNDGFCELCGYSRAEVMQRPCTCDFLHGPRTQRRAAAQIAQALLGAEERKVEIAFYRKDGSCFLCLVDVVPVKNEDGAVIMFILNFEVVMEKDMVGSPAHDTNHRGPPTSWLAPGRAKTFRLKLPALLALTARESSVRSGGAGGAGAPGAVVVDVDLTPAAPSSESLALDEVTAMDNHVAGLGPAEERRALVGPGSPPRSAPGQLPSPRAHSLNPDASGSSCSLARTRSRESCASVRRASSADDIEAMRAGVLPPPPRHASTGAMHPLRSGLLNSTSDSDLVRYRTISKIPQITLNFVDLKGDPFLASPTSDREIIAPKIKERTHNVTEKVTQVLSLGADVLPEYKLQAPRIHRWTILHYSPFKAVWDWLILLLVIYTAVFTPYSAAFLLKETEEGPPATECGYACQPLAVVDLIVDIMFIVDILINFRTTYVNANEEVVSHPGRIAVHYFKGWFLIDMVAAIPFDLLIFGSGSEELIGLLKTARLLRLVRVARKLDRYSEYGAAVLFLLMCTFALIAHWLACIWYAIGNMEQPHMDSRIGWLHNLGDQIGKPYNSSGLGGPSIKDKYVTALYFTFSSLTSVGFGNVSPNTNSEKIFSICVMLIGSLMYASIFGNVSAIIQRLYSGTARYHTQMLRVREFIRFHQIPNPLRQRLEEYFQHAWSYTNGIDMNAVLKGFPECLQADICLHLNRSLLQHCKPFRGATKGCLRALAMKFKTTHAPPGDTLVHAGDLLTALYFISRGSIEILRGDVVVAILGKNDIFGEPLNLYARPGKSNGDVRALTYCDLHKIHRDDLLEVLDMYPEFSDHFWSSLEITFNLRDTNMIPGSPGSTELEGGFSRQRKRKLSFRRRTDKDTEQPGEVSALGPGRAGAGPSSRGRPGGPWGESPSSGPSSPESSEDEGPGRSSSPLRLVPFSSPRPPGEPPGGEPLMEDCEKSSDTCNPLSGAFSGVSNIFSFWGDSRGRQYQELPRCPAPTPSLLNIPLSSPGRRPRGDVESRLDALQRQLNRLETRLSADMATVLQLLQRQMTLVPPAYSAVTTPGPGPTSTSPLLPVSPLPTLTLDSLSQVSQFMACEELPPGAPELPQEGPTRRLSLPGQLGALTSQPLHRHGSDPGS
Sequence of Cytochrome P450 3A4 (P08684 whole entry): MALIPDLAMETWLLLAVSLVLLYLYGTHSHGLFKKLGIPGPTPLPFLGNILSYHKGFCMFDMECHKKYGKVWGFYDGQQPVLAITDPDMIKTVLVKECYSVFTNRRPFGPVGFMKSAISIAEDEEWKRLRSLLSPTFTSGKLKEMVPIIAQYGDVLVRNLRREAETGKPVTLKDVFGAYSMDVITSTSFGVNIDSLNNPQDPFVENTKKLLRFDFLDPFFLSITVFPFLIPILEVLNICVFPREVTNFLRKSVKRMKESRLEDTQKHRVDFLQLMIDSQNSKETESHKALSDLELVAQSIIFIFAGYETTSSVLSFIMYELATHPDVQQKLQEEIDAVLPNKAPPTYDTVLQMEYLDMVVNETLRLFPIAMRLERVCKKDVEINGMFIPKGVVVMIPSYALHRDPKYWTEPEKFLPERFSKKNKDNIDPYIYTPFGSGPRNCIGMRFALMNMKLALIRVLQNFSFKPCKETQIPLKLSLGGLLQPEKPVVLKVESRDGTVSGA

## COc1c(N2CC3(CC3)[C@](C)(N)C2)c(F)cc2c(=O)c(C(=O)O)cn([C@@H]3C[C@@H]3F)c12
Chlamydia pneumoniae [1]
  Ratio: 4
[2]
  Ratio: 4
[3]
  Ratio: 4
Bacillus subtilis [4]
  Ratio: >4
Enterococcus faecalis [5]
  Ratio: >4
Streptococcus pyogenes [6]
  Ratio: >4
Streptococcus pneumoniae [7]
  Ratio: >4
[8]
  Ratio: >4
Staphylococcus aureus [9]
  Ratio: >4
Streptococcus pneumoniae [10]
  Activity: Active
Streptococcus pneumoniae [11]
  Activity: Active
Mus musculus [12]
  Activity: Non-toxic
Mus musculus [13]
  Activity: Non-toxic
Mus musculus [14]
  Activity: Non-toxic
Mus musculus [15]
  Activity: Non-toxic
Mus musculus [16]
  Activity: Non-toxic
Mus musculus [17]
  Activity: Non-toxic
[18]
  half-life: 4.8 h
[19]
  AUC(0-t) at 8 h: 23800 ng·h/mL
[20]
  concentration at 5 min: 3660 ng/mL
[21]
  dose excreted at 24 h: 61.3%
[22]
  bioavailability: 71%
[23]
  half-life: 4.8 h
[24]
  Cmax: 2200 ng/mL
[25]
  AUC(0-t) at 24 h: 16900 ng·h/mL
[26]
  dose excreted at 24 h: 32%
[27]
  dose excreted at 24 h: 69.8%
[28]
  Kp: 9
[29]
  Kp: 10.4
[30]
  AUC(0-t) at 8 h: 27800 ng·h/mL
[31]
  AUC(0-t) at 8 h: 32100 ng·h/mL
[32]
  Kp: 4.4
[33]
  AUC(0-t) at 8 h: 13700 ng·h/mL
[34]
  Cmax: 1220 ng/mL
[35]
  AUC(0-t) at 8 h: 3080 ng·h/mL
[36]
  fraction unbound at 5 ug/mL: 0.653
[37]
  solubility: 620 µg/mL (≈ 1480 µM)
hERG (KCNH2) [38]
  inhibition at 100 µM: 2.7%
hERG (KCNH2) [39]
  inhibition at 30 µM: 1.9%
Cytochrome P450 3A4
  inhibition (INH): Not Active
Streptococcus pneumoniae [40]
  MIC50: 1 µg/mL (≈ 2.38 µM)
  MIC80: 1 µg/mL (≈ 2.38 µM)
  MIC90: 1 µg/mL (≈ 2.38 µM)
Chlamydia pneumoniae [41]
  MIC: 0.063 µg/mL (≈ 0.15 µM)
Chlamydia pneumoniae [42]
  MIC: 0.125 µg/mL (≈ 0.298 µM)
[43]
  MIC: 0.12 µg/mL (≈ 0.286 µM)
[44]
  MIC: 0.12 µg/mL (≈ 0.286 µM)
Pseudomonas aeruginosa
  MIC: 0.78 µg/mL (≈ 1.86 µM)
Moraxella catarrhalis
  MIC: 0.05 µg/mL (≈ 0.119 µM)
Haemophilus influenzae
  MIC: 0.012 µg/mL (≈ 0.0286 µM)
Escherichia coli
  MIC: 0.012 µg/mL (≈ 0.0286 µM)
Klebsiella pneumoniae
  MIC: 0.05 µg/mL (≈ 0.119 µM)
Bacillus subtilis [45]
  MIC: 0.1 µg/mL (≈ 0.238 µM)
Streptococcus pyogenes [46]
  MIC: 0.2 µg/mL (≈ 0.477 µM)
Enterococcus faecalis [47]
  MIC: 0.2 µg/mL (≈ 0.477 µM)
Streptococcus pneumoniae [48]
  MIC: 0.39 µg/mL (≈ 0.93 µM)
Streptococcus pneumoniae [49]
  MIC: 0.05 µg/mL (≈ 0.119 µM)
[50]
  MIC: 0.1 µg/mL (≈ 0.238 µM)
Staphylococcus aureus [51]
  MIC: 0.39 µg/mL (≈ 0.93 µM)
Staphylococcus aureus [52]
  MIC: 0.025 µg/mL (≈ 0.0596 µM)
Chlamydia pneumoniae [53]
  Ratio: 4
[54]
  P: 19.2
